Measured values from US20100273848A1, “IMINOPYRROLIDONE THIOL AMINO ACID CONJUGATES, PHARMACEUTICAL COMPOSITIONS AND METHODS FOR THE TREATMENT OF CANCER” (THE ARIZONA BD OR REG ON BEHALF OF THE UNIV OF AZ, priority 2007, published 2010).
Like-named read-outs stand apart in the source and are kept apart here.

What was measured:
[1] = test system: PC-3 human prostate cancer cells; assay: Cytotoxicity study, SRB assay, PC-3 cells; assay type: cell-based; conditions: PC-3 - Prostate, 72 hours (*), read-out: IC50 at 72* or 96 hours
Procedure: (§1) Example 1 illustrates a method of determining the antineoplastic activity of iminopyrrolidone thiol amino acid conjugates in vitro. Ninety-six (96) well plates (BD Biosciences, San Jose, Calif.) were seeded with approximately 5000 cells in 160 μl of growth medium per well in the last eleven columns of each plate. The first column of each plate was filled with 160 μl of growth medium containing no cells to be used as a blank. Following a 24-hour incubation period, the cells in the last ten columns were drugged (leaving row one as a blank and row two as a control with uninhibited cell growth) with 40 μl of either simexonyl homocysteine or imexon in growth medium. The quantity of drug added to the wells of each respective column was constant, but varied from column to column such that the resulting concentration in the total volume of each individual well ranged from 1 μM to 1000 μM. […]

[2] = test system: 8226/I10 human myeloma cells (chemotherapy resistant); assay: Cytotoxicity study, MTT assay, 8226/I10 cells; assay type: cell-based; conditions: 8226/I10 - Myeloma, 96 hours, read-out: IC50 at 72* or 96 hours
Procedure: as §1

DB lymphoma cells [3] = assay: Cytotoxicity study, MTT assay, DB cells; assay type: cell-based, human; conditions: 96 hours, read-out: IC50 at 72* or 96 hours
Procedure: as §1

DB lymphoma cells [4] = conditions: 45, 90 or 180 μM, 48 hours after drug exposure, FIG. 6
Procedure: DB and Raji lymphoma cells were kindly provided by Dr. Alan List (University of Arizona, Tucson, Ariz.). All cell lines were cultured in RPMI 1640 media (Mediatech, Herndon, Va.) enhanced with 5% (v/v) (10% for DB and Raji cells) heat-inactivated bovine calf serum (Hyclone Laboratories, Logan, Utah), 2 mM L-glutamine, 100 U/ml penicillin, and 100 μg/ml streptomycin (each from Invitrogen, Carlsbad, Calif.) in a humidified incubator containing 5% CO2 at 37° C.
DB lymphoma cells were cultured in ninety-six (96) well plates (BD Biosciences) under conditions as described hereinbefore. […] Forty eight hours after drug exposure, the percentage of necrotic, viable, proapoptotic, and apoptotic cells in each respective well was measured using an annexin V—FITC (fluorescein isothiocyanate labeled annexin V) apoptosis detection kit (BioVision Labs) according to the manufacturer's instructions in conjunction with a Bectin Dickenson FACScan (San Jose, Calif.) fluorescence activated cell sorter using CellQuest Pro software (BD Biosciences). […]
A threshold intensity for the fluorescence signal permits one to distinguish between proapoptotic and apoptotic cells in the flow cytometric analysis, but both are indicative of an induction of apoptosis by the drug.

[5] = test system: DU-145 human prostate cancer cells; assay: Cytotoxicity study, SRB assay, DU-145 cells; assay type: cell-based; conditions: DU-145 - Prostate, 96 hours, read-out: IC50 at 72* or 96 hours
Procedure: as §1

[6] = test system: 8226/s human myeloma cells (chemotherapy sensitive); assay: Cytotoxicity study, MTT assay, 8226/s cells; assay type: cell-based; conditions: 8226/s - Myeloma, 96 hours, read-out: IC50 at 72* or 96 hours
Procedure: as §1

[7] = test system: A375 human malignant melanoma cells; assay: Cytotoxicity study, SRB assay, A375 cells; assay type: cell-based; conditions: 96 hours, read-out: IC50 at 72* or 96 hours
Procedure: as §1

[8] = test system: MiaPaCa human pancreatic cancer cells; assay: Cytotoxicity study, SRB assay, MiaPaCa cells; assay type: cell-based; conditions: 96 hours, read-out: IC50 at 72* or 96 hours
Procedure: as §1

Raji lymphoma cells = assay: Cytotoxicity study, MTT assay, Raji cells; assay type: cell-based, human; conditions: 96 hours, read-out: IC50 at 72* or 96 hours
Procedure: as §1

simexonyl homocysteine
IC50 [1]: 49 µM | IC50 [2]: 95 µM | IC50 (DB lymphoma cells [3]): 23 µM | induction of apoptosis (percentage of proapoptotic and apoptotic cells) (DB lymphoma cells [4]): induced apoptosis | IC50 [5]: 143 µM | IC50 [6]: 13.6 µM | IC50 [7]: 15.4 µM | IC50 ([8]; MiaPaCa - Pancreas): 46 µM | IC50 (Raji lymphoma cells): 22 µM

NC1=NC(=O)N2CC12 (racemic) [imexon, (5RS)-4-amino-1,3-diazabicyclo[3.1.0]hex-3-en-2-one, reference compound]
IC50 (DB lymphoma cells [3]; Homo sapiens): 54 µM | IC50 ([8]; Homo sapiens, MIA PaCa-2, MiaPaCa - Pancreas): 190 µM | IC50 (Raji lymphoma cells; Homo sapiens): 50 µM
